# Literature values in patent US9884022B2, “Controlled release pharmaceutical compositions of tapentadol” (LUPIN LIMITED, priority 2010, dated 2018).
# Conditions: background statement on immediate release compositions
smiles,measurement,value
"CCC(c1cccc(O)c1)C(C)CN(C)C (stereo not shown) [tapentadol, 3-(3-dimethylamino-1-ethyl-2-methyl-propyl) phenol]",half life,4 h
